Source: patent US20230097883A1, “ERGOTHIONEINE PET COMPOUNDS AND METHODS OF USE THEREOF” (VANDERBILT UNIVERSITY, priority 2021, published 2023)
“Also recorded” adds a separate entry of the source.

Experiments:
[1] = Nickel assay: 2D-HPLC with nickel HisTrap column and His-tag antibodies; assay type: binding
Protocol: In principle, nickel is a transition metal like Fe, Cu and Zn. The nickel column can immobilize hexahistidine-tag (His-tag) recombinant proteins, such as recombinant antibodies harboring a His tag (His-Abs). In our experimental design, nickel forms a substantial coordination equilibrium with histidines via the imidazole ring structures to form a stable metal/ligand complex. This assay uses two different buffer reservoirs, a wash buffer (PBS) and an elution buffer (PBS containing 50 mM imidazole). To remove the His-Abs (14 KDa) from the nickel column, the washing buffer was switched to the elution buffer and the His-Abs dislodged from the column were detected by the 2D-HPLC (FIG. 3.1C, left). In a different phase of the experiment, the His-Abs solution was spiked with ERGO (14.5 mM) prior to injection into the HPLC system. […] The integrity of the eluted His-Abs was collected and confirmed by orbit trap mass spectrometry.
ERGO's metal-binding affinity was tested via a 2D-HPLC equipped with a nickel-based HisTrap HP column (Cytiva, Marlborough, Mass., USA). The 2D-HPLC was performed with a Hitachi LaChrom Elite L-2455 Diode Array Detector linked to a Hitachi L-2130 pump (Hitachi High-Technologies, Corp., Tokyo, Japan). […]

[2] = tested on: Abeta; experiment: Abeta immunohistochemistry (6E10 antibody) of brain sections after ERGO treatment; assay type: in vivo, mouse; conditions: ERGO-treated versus non-treated 5XFAD mice, approx. 4 months of age
Protocol: To confirm the in vivo observations, animals were perfused, and the brain sections were stained with anti-Abeta antibody, 6E10. […] In particular, we observed a clear difference in the hippocampus, pyramidal cortex and thalamus of non-treated compared to ERGO-treated 5XFAD mice (FIG. 3L, 3.30, 3.3R).
(§1) Quantitative analysis of the PET imaging and IHC data was performed using imageJ software. The data was imported to GraphPad Prism version 9 for Mac (GraphPad Software, San Diego, Calif., USA) for statistical analysis. Differences between groups were tested using unpaired t-test.

[3] = tested on: IBA1-positive microglia; experiment: IBA1 immunohistochemistry of brain sections after ERGO treatment; assay type: in vivo, mouse; conditions: ERGO-treated versus non-treated 5XFAD mice
Protocol: In this study, after the PET imaging, animals (non-treated 5XFAD (n=3) and ERGO-treated 5XFAD mice (n=5)) were perfused, and the brain sections were stained with antibodies against GFAP and IBA1 for neuroinflammatory markers astrocytes and microglia, respectively.
as §1

[4] = tested on: oxidative stress; experiment: PET imaging of LPS-induced neuroinflammation with [11C]ERGO radioligand, with Tempol blocking; assay type: in vivo, mouse; conditions: LPS 5 mg/Kg i.p. 24 h before; 20 MBq/0.1 mL I.V.; 30 min scan from 10 min after injection
Protocol: The mice were injected with ˜20 MBq/0.1 ml 11C-ERGO via the tail vein and returned to their cages for 10 min. Then they were anesthetized with 2% isofluorane and imaged in an Inveon microPET (Siemens Pre-clinical, Knoxville, Tenn., USA) for 30 min in static mode followed by a CT scan using a NanoSPECT/CT (Mediso, Wash. D.C.) at an x-ray beam intensity of […] and x-ray voltage of 45 kVp. PET images were reconstructed using the iterative MAP reconstruction algorithm with 18 iterations and a beta smoothing value of 0.001 into 128×128×95 slices with a voxel size of 0.388 mm×0.388 mm×0.796 mm. The CT images were reconstructed into 170×170×126 slices at a voxel size of 0.4×0.4×0.4 mm^3. The PET and CT images were co-registered using the imaging tool AMIDE.
The mouse model of LPS-induced neuroinflammation was developed based on past reports. The LPS derived from Escherichia coli […] (Sigma Aldrich, St Louis, Mo.) was formulated in sterilized dd. water and given a high dose of LPS formulation (5 mg/Kg) through intraperitoneal injection 24 h before PET imaging. This high dose would result in approximately 12-13% body weight loss over the course of 24 h. After PET imaging, animals were sacrificed, and the brains were collected for histology analysis.
The reported LPS mouse model of neuroinflammation in the past was reproduced for the validation of the specificity of the probe. […]

[5] = Ex-vivo cut-and-count whole-body biodistribution of I.V.-injected [11C]ERGO in WT mice; set-up: species or system mouse; conditions: pharmacokinetic study

| Compound | elution of His-tag antibodies from the nickel column in the presence of ERGO ([1]; His-Abs solution spiked with ERGO 14.5 mM, PBS wash buffer) | elution of His-tag camelid antibodies from the nickel column in the presence of ERGO ([1]; antibody injected with addition of ERGO 50 nM, PBS mobile phase) | decrease in Abeta level (pixel counts), hippocampus [2] [fold] | decrease in Abeta level (pixel counts), pyramidal cortex [2] [fold] | decrease in Abeta level (pixel counts), thalamus [2] [fold] | reduction of IBA1-positive microglia [3] [%] | PET signal in brain regions, LPS-treated versus nontreated WT mice [4] | time after injection at which the concentration in the serum started to decrease [5] [min] |
| --- | --- | --- | --- | --- | --- | --- | --- | --- |
| C[N+](C)(C)[C@@H](Cc1c[nH]c(=S)[nH]1)C(=O)[O-] [ERGO, L-ergothioneine] | eluted from the nickel column immediately by the wash buffer; also recorded: washed out immediately | Right at the beginning of the run, His-tag camelid antibodies were eluted | 4 | 5 | 2 | ~80 | – | – |
| C[N+](C)([11CH3])[C@@H](Cc1c[nH]c(=S)[nH]1)C(=O)[O-] [[^11C]ERGO] | – | – | – | – | – | – | stronger than that from nontreated counterparts across every major region of the brain | 10 |
